Earlier results on one compound are cited in patent publication US7976880B2, “Pregnane glycoside compositions and Caralluma extract products and uses thereof” (priority 2003, dated 2011).

SMILES strings stand for the structures. Read-outs that look alike come from different tables or passages of the source.

This series relates to appetite. To be noted: 3 mg per kg body weight.

Consider `O=C(O)CC(O)(C(=O)O)C(O)C(=O)O` (single isomer, unassigned; (-)) [HCA, (−)-hydroxycitrate], for which the Reduction in appetite result is, setting by setting: (at 6.5 hours) “about 43%”; (at 24 hours) “about 29%”.
